Test results reported in patent US20240384268A1, “Oligonucleotides” (Hudson Institute of Medical Research, priority 2021, published 2024).
In the oligonucleotide strings, read from the 5' end, every base follows the letter of its sugar. An asterisk marks phosphorothioate; unmarked linkages are phosphodiester. Other units and linkages are bracketed, terminal groups are in braces. A string of capitals states the bases alone. d = 2'-deoxy (DNA); m = 2'-O-methyl

What follows are substances tested against T1, human TLR7 (Homo sapiens, UniProt Q9NYK1) (assay: HEK-TLR7 NF-κB-luciferase reporter, R848 stimulation). Details: HEK-TLR7; 100 nM ASO; percentage of R848 without ASO (Alharbi et al., 2020).
T1 construct: HA; host or cells: 293XL-hTLR7-HA (HEK293)
T1 sequence (Q9NYK1 27-1049): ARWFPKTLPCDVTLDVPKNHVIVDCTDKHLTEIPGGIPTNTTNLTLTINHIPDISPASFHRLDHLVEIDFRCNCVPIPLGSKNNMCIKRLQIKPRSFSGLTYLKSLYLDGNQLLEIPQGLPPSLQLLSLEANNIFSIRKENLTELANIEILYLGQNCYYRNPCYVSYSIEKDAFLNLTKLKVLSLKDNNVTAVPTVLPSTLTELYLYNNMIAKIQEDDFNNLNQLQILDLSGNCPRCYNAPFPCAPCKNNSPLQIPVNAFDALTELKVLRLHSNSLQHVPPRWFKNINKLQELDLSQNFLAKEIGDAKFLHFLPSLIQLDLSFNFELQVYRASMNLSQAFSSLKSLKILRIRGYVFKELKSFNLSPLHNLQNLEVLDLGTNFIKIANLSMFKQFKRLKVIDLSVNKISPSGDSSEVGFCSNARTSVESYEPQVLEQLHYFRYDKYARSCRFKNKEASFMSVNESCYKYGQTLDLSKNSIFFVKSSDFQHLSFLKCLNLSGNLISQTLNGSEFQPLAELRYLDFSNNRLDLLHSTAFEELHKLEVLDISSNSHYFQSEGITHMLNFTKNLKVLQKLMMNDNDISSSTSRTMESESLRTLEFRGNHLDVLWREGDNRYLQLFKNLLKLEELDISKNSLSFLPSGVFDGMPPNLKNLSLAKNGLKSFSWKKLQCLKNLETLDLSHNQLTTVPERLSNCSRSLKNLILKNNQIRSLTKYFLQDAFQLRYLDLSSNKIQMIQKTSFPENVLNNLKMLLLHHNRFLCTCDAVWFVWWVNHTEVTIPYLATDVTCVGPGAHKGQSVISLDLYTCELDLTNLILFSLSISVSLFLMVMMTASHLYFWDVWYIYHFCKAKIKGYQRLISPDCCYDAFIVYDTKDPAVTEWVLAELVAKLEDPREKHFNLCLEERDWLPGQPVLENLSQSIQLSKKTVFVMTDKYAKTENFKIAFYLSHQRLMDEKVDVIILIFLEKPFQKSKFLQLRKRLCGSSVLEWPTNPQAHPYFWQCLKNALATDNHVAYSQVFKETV
Assay type: cell-based

Compared with “mU*mC*mU*mC*mU*C*T*G*G*T*C*C*C*A*T*mC*mC*mC*mU*mU (mU*mC*mU*mC*mU*dC*dT*dG*dG*dT*dC*dC*dC*dA*dT*mC*mC*mC*mU*mU; antisense) [[LINC-PINT]110]”, “mU*mC*mU*mC*mU*G*G*T*C*C*C*A*T*C*C*mC*mU*mU*mC*mU (UCUCUGGTCCCATCCCUUCU; antisense; sugars from the 5' end m5 d10 m5, all phosphorothioate, methylation of C not given here) [[LINC-PINT]108]” is higher in “TLR7-100 nM: averaged NF-κB-Luciferase relative to R848” value: 43.82% for the first, 78.25% for the second.

First: mU*mC*mU*mG*mG*T*C*C*C*A*T*C*C*C*T*mU*mC*mU*mG*mC (UCUGGTCCCATCCCTUCUGC; antisense; sugars from the 5' end m5 d10 m5, all phosphorothioate, methylation of C not given here) [[LINC-PINT]106]
Second: mU*mG*mA*mC*mA*A*A*A*C*A*A*T*A*A*T*mA*mA*mC*mA*mG (mU*mG*mA*mC*mA*dA*dA*dA*dC*dA*dA*dT*dA*dA*dT*mA*mA*mC*mA*mG) [[LINC-PINT]384]
The “TLR7-100 nM: averaged NF-κB-Luciferase relative to R848” value of the first is lower: 29.42% for the first, 36.68% for the second.

Going from “mU*mG*mA*mC*mA*T*T*T*C*G*T*G*G*C*T*mC*mC*mU*mA*mC (mU*mG*mA*mC*mA*dT*dT*dT*dC*dG*dT*dG*dG*dC*dT*mC*mC*mU*mA*mC; antisense) [[LINC-PINT]523 KL]” to “mU*mG*mA*mU*mG*A*T*G*C*T*T*G*C*A*G*mG*mA*mG*mG*mC (mU*mG*mA*mU*mG*dA*dT*dG*dC*dT*dT*dG*dC*dA*dG*mG*mA*mG*mG*mC) [[LINC-PINT|283.1]”, the “TLR7-100 nM: averaged NF-κB-Luciferase relative to R848” value falls from 33.56% to 25.50%.

Going from “mU*mG*mG*mC*mG*T*A*G*T*T*T*C*T*C*T*mU*mC*mC*mU*mC (mU*mG*mG*mC*mG*dT*dA*dG*dT*dT*dT*dC*dT*dC*dT*mU*mC*mC*mU*mC; antisense) [[LINC-PINT]937.1]” to “mU*mG*mU*mG*mA*A*A*A*G*A*T*T*A*T*C*mU*mU*mC*mU*mU (UGUGAAAAGATTATCUUCUU; sugars from the 5' end m5 d10 m5, all phosphorothioate, methylation of C not given here) [[CDKN2B-AS1]2137]”, the “TLR7-100 nM: averaged NF-κB-Luciferase relative to R848” value rises from 32.81% to 34.51%.

Compared with “mU*mG*mU*mU*mU*C*C*C*C*G*G*A*G*A*G*mC*mA*mA*mU*mG (UGUUUCCCCGGAGAGCAAUG; antisense; sugars from the 5' end m5 d10 m5, all phosphorothioate, methylation of C not given here) [[LINC-PINT]501 KL]”, “mU*mU*mA*mA*mA*T*A*A*T*C*T*A*G*T*T*mU*mG*mA*mA*mG (UUAAATAATCTAGTTUGAAG; sugars from the 5' end m5 d10 m5, all phosphorothioate, methylation of C not given here) [[CDKN2B-AS1]132]” is lower in “TLR7-100 nM: averaged NF-κB-Luciferase relative to R848” value: 30.90% for the first, 25.66% for the second.

First: mU*mU*mA*mG*mC*T*C*C*T*T*G*C*C*T*C*mG*mU*mU*mC*mC (mU*mU*mA*mG*mC*dT*dC*dC*dT*dT*dG*dC*dC*dT*dC*mG*mU*mU*mC*mC; antisense) [[LINC-PINT] 1222]
Second: mU*mU*mC*mU*mC*T*C*T*G*G*T*C*C*C*A*mU*mC*mC*mC*mU (mU*mU*mC*mU*mC*dT*dC*dT*dG*dG*dT*dC*dC*dC*dA*mU*mC*mC*mC*mU; antisense) [[LINC-PINT]111]
The “TLR7-100 nM: averaged NF-κB-Luciferase relative to R848” value of the first is higher: 31.67% for the first, 26.22% for the second.

Going from “mU*mU*mG*mG*mC*C*T*G*T*G*G*A*T*G*C*mU*mU*mU*mG*mU (mU*mU*mG*mG*mC*dC*dT*dG*dT*dG*dG*dA*dT*dG*dC*mU*mU*mU*mG*mU) [[LINC-PINT]2673.1]” to “mU*mU*mG*mU*mG*A*A*A*A*G*A*T*T*A*T*mC*mU*mU*mC*mU (mU*mU*mG*mU*mG*dA*dA*dA*dA*dG*dA*dT*dT*dA*dT*mC*mU*mU*mC*mU) [[CDKN2B-AS1]2138]”, the “TLR7-100 nM: averaged NF-κB-Luciferase relative to R848” value rises from 21.43% to 35.02%.

“mU*mU*mU*mG*mA*A*A*T*T*C*A*G*A*A*G*mA*mU*mU*mU*mG (mU*mU*mU*mG*mA*dA*dA*dT*dT*dC*dA*dG*dA*dA*dG*mA*mU*mU*mU*mG) [[LINC PINT|2690]” was tested, and the “TLR7-100 nM: averaged NF-κB-Luciferase relative to R848” value was 35.07%.
